Measured values from article PMC6199744, “Development of Chemical Proteomics for the Folateome and Analysis of the Kinetoplastid Folateome” (ACS Infectious Diseases, 2018).
Where two headings read alike, the source gives them in different places.

What was measured:
Type in all cases: binding
[1] = biological target: T1, HeLa cell extract proteins (Homo sapiens, UniProt P30740)
T1 construct: endogenous in cells; host or cells: HeLa cell extract
T1 sequence (P30740 1-379): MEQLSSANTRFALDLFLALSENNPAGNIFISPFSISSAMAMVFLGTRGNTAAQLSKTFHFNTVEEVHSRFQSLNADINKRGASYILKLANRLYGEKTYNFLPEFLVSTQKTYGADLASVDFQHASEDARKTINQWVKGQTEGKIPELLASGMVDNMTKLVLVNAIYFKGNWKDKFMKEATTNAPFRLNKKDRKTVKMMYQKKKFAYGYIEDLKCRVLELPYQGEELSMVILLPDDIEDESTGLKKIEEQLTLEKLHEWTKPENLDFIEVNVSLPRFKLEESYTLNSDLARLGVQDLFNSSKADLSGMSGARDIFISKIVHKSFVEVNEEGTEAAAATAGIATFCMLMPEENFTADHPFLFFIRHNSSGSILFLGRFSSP

[2] = biological target: T2, HeLa cell extract proteins (Homo sapiens, UniProt O95372)
T2 construct: endogenous in cells; host or cells: HeLa cell extract
T2 sequence (O95372 whole entry): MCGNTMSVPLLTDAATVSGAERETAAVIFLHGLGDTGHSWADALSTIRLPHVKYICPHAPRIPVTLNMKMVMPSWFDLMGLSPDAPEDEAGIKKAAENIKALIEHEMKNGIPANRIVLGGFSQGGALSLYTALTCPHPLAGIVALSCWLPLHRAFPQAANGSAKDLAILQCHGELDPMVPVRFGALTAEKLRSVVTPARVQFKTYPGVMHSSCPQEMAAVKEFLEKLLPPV

[3] = biological target: T3, HeLa cell extract proteins (Homo sapiens, UniProt P06744)
T3 construct: endogenous in cells; host or cells: HeLa cell extract

[4] = biological target: T4, HeLa cell extract proteins (Homo sapiens, UniProt P55072)
T4 construct: endogenous in cells; host or cells: HeLa cell extract
T4 sequence (P55072 whole entry): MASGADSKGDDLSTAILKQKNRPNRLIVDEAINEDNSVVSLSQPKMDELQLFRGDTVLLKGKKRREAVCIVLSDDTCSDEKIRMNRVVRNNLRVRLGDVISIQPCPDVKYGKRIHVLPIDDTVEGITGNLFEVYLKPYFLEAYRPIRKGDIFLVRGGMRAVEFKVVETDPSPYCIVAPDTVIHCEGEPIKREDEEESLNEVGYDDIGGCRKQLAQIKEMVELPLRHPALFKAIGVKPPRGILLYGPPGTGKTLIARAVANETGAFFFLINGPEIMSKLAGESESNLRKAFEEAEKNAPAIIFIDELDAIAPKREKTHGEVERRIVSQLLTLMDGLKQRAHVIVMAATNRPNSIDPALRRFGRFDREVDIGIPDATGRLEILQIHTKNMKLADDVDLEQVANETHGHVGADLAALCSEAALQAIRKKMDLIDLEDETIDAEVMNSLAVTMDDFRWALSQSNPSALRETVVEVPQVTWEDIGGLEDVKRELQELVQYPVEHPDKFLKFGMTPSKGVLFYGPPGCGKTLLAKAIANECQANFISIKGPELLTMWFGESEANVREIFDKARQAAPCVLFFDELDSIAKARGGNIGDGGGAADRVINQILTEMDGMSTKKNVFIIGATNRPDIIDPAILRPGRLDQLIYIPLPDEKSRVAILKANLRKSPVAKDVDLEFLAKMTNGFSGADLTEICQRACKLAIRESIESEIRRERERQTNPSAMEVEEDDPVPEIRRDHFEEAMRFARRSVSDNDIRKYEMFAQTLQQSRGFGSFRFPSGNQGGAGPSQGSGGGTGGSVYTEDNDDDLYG

[5] = biological target: T5, HeLa cell extract proteins (Homo sapiens, UniProt Q14764)
T5 construct: endogenous in cells; host or cells: HeLa cell extract
T5 sequence (Q14764 whole entry): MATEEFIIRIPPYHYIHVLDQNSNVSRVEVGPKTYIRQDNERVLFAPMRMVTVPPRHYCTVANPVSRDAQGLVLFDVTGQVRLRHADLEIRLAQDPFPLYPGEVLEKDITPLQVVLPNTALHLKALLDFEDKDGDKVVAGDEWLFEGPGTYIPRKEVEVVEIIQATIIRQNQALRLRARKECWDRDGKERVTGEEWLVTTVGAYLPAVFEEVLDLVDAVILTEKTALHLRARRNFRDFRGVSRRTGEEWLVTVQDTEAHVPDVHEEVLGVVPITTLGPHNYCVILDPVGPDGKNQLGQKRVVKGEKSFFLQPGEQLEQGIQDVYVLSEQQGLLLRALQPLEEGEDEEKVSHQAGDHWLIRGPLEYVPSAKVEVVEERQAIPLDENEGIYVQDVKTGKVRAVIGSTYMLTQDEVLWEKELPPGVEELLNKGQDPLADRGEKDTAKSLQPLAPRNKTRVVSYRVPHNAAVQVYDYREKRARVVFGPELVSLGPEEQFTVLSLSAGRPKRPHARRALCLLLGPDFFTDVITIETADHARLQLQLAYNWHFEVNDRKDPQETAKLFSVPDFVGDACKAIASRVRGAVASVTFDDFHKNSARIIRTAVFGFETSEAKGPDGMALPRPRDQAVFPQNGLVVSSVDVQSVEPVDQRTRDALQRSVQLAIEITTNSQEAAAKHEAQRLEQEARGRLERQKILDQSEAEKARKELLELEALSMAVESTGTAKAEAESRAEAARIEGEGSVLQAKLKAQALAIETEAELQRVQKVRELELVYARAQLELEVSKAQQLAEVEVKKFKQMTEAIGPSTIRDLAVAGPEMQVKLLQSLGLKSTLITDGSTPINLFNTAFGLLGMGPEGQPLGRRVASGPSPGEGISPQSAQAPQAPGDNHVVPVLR

[6] = biological target: T6, HeLa cell extract proteins (Homo sapiens, UniProt Q7RTS9)
T6 construct: endogenous in cells; host or cells: HeLa cell extract
T6 sequence (Q7RTS9 1-669): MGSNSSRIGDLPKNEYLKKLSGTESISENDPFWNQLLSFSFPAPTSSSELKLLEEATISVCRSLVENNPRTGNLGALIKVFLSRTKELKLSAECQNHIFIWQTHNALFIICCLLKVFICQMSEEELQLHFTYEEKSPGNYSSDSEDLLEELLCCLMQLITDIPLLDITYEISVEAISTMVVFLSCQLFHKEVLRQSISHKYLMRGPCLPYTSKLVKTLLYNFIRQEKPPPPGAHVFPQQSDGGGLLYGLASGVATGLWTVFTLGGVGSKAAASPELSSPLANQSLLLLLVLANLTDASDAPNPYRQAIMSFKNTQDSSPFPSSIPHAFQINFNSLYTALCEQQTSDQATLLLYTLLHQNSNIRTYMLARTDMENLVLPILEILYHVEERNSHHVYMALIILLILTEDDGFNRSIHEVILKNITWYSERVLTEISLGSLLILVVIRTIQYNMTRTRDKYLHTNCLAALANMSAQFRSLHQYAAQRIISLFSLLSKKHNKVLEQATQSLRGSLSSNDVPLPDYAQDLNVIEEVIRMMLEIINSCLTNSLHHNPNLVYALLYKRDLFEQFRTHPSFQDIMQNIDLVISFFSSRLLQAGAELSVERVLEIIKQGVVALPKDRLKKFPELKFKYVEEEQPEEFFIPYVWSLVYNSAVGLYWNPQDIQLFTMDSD

[7] = biological target: T7, HeLa cell extract proteins (Homo sapiens, UniProt Q8NCG7)
T7 construct: endogenous in cells; host or cells: HeLa cell extract
T7 sequence (Q8NCG7 1-672): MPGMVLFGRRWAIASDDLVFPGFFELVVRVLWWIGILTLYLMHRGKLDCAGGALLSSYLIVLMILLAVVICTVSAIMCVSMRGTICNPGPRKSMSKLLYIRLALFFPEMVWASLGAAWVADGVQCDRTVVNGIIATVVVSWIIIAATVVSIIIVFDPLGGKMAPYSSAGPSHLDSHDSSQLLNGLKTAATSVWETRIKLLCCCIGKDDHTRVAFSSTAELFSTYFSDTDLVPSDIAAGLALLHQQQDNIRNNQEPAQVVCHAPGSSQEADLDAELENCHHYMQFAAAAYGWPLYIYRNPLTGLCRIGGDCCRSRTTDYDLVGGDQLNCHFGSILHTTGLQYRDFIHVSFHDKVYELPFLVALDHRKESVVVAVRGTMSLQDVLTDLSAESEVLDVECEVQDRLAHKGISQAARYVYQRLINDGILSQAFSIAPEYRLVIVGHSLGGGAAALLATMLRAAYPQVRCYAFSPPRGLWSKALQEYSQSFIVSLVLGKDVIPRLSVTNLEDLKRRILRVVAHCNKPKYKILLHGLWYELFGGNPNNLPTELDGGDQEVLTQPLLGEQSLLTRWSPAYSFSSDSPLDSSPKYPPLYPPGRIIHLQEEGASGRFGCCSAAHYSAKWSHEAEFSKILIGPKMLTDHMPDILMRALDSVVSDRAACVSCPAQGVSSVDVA

[8] = biological target: T8, HeLa cell extract proteins (Homo sapiens, UniProt P62191)
T8 construct: endogenous in cells; host or cells: HeLa cell extract
T8 sequence (P62191 whole entry): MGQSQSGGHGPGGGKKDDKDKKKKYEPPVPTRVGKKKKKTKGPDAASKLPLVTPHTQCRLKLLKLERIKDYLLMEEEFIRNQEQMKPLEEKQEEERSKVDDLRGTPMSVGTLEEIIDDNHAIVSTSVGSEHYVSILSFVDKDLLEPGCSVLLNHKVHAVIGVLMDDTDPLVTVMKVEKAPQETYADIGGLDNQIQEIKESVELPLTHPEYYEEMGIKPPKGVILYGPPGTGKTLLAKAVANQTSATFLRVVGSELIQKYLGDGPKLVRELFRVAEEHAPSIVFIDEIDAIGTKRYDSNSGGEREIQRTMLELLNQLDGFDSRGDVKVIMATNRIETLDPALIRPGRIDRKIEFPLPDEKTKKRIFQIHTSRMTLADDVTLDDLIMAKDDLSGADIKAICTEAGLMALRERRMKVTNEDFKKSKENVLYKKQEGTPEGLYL

[9] = biological target: T9, HeLa cell extract proteins (Homo sapiens, UniProt Q15436)
T9 construct: endogenous in cells; host or cells: HeLa cell extract
T9 sequence (Q15436 whole entry): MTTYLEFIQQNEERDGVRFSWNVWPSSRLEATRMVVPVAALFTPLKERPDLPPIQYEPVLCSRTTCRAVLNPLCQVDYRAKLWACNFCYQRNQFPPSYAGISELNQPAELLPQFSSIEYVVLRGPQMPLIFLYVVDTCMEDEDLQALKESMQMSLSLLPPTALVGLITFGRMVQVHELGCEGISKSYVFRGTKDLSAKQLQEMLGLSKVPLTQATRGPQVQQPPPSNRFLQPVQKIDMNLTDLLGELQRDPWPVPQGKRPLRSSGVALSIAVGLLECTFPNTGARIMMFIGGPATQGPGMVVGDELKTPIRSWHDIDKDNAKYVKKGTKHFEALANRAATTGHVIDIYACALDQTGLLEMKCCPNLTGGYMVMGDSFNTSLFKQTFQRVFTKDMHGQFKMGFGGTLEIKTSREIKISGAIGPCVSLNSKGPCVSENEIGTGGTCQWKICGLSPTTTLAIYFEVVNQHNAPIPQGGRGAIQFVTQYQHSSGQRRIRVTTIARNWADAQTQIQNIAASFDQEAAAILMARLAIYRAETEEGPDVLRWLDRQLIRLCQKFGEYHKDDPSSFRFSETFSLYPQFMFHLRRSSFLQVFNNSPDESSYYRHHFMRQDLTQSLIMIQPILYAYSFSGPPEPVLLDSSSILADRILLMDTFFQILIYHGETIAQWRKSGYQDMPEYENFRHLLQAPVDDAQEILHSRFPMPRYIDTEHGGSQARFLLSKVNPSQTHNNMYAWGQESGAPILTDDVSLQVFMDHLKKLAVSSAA

[10] = biological target: T10, HeLa cell extract proteins (Homo sapiens, UniProt P12277)
T10 construct: endogenous in cells; host or cells: HeLa cell extract
T10 sequence (P12277 whole entry): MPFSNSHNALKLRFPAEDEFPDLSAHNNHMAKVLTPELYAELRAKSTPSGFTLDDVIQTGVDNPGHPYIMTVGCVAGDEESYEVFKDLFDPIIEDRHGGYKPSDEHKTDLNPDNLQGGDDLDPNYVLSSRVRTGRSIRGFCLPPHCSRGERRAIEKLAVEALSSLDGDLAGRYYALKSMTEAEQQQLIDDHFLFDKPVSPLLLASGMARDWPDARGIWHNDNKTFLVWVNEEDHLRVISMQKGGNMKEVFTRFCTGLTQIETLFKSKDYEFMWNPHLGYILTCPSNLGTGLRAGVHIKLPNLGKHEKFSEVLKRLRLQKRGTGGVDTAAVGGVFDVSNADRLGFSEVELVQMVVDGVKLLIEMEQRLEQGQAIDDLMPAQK

[11] = HeLa, protein GPI (CDNA FLJ56429, HIGHLY SIMILAR TO GLUCOSE-6-PHOSPHATE ISOMERASE.)
[12] = HeLa, protein CKB (CREATINE KINASE B-TYPE.)

| Structure (SMILES) | fold changes relative to vehicle control ([1]; protein SERPINB1, HeLa) | fold changes relative to vehicle control ([2]; HeLa, protein LYPLA2) | fold changes relative to vehicle control [3, 11] | fold changes relative to vehicle control ([4]; protein VCP, HeLa) | fold changes relative to vehicle control ([5]; HeLa, protein MVP) | fold changes relative to vehicle control ([6]; HeLa, protein DYM) | fold changes relative to vehicle control ([7]; captured protein DAGLB, HeLa) | fold changes relative to vehicle control ([8]; protein PSMC1, HeLa) | fold changes relative to vehicle control ([9]; HeLa, protein SEC23A) | fold changes relative to vehicle control [10, 12] | fold changes relative to vehicle control ([1]; HeLa, protein SERPINB1) | fold changes relative to vehicle control ([2]; protein LYPLA2, HeLa) | fold changes relative to vehicle control ([3]; HeLa, protein GPI) | fold changes relative to vehicle control ([4]; HeLa, protein VCP) | fold changes relative to vehicle control ([7]; HeLa, protein DAGLB) | fold changes relative to vehicle control ([8]; HeLa, protein PSMC1) | fold changes relative to vehicle control ([10]; HeLa, protein CKB) | also measured |
| --- | --- | --- | --- | --- | --- | --- | --- | --- | --- | --- | --- | --- | --- | --- | --- | --- | --- | --- |
| CCCCCCOc1cccc(Cc2cnc(N)nc2N)c1 [compound 2] | 1.28 | 1.19 | 2.26 fold | 1.29 | 1.23 | 1.27 | 1.07 | 1.42 | 1.07 | 2.55 fold | – | – | – | – | – | – | – | – |
| NCCOCCOCC(=O)Nc1nc2ncc(CNc3ccc(C(=O)NC(CCC(=O)O)C(=O)O)cc3)nc2c(=O)[nH]1 (stereo not shown) [compound 6] | – | – | – | – | 0.96 | 0.86 | – | – | 0.89 | – | 1.09 | 1.09 | 1.23 | 1.07 | 1.07 | 0.95 | 1.23 | – |
| CCCCCCOc1ccc(Cc2cnc(N)nc2N)cc1 [compound 1] | 1.07 | 0.82 | 1.37 fold | 0.94 | 1.06 | 0.89 | 1.02 | 0.98 | 1.1 | 1.55 fold | – | – | – | – | – | – | – | – |
| Nc1nc2c(c(=O)[nH]1)N(C=O)C(CNc1ccc(C(=O)N[C@@H](CCC(=O)O)C(=O)O)cc1)CN2 (stereo partly shown) [LEU, leucovorin] | – | – | – | – | 0.99 | 0.78 | – | – | 0.94 | – | 0.98 | 0.89 | 0.98 | 0.98 | 1.01 | 1 | 1.01 | – |
| NCCCNc1ccc(C(=O)NC(CCC(=O)O)C(=O)O)cc1 (stereo not shown) [compound 7] | – | – | – | – | 1.28 | 0.94 | – | – | 1.1 | – | 0.99 | 1.01 | 0.96 | 1.01 | 1.04 | 0.85 | 0.93 | – |
| Nc1nc2[nH]cc(CCc3ccc(C(=O)N[C@@H](CCC(=O)O)C(=O)O)cc3)c2c(=O)[nH]1 [PTX, pemetrexed] | – | – | – | – | – | – | – | – | – | – | – | – | – | – | – | – | – | fold changes relative to vehicle control [1]: 1.06; fold changes relative to vehicle control [2]: 0.99; fold changes relative to vehicle control [3]: 1.08; fold changes relative to vehicle control [4]: 0.98; fold changes relative to vehicle control [5]: 0.98; fold changes relative to vehicle control [6]: 0.68; fold changes relative to vehicle control [7]: 0.88; fold changes relative to vehicle control [8]: 0.92; fold changes relative to vehicle control [9]: 0.94; fold changes relative to vehicle control [10]: 1.11 |
| Nc1nc2cccc(-c3ccccc3)c2n1Cc1ccc(Cl)c(Cl)c1 [compound 3] | 0.98 | 0.97 | 0.93 fold | 0.94 | 1.02 | 0.88 | 0.97 | 1 | 1.04 | 0.92 fold | – | – | – | – | – | – | – | – |
